{"source": "paper PMC9602792", "about": "“Preclinical evaluation of the epithelial sodium channel inhibitor AZD5634 and implications on human translation” (American Journal of Physiology - Lung Cellular and …, 2022)", "key": {"[1]": {"molecular_target": "T1, hERG (Homo sapiens, UniProt Q12809)", "T1 construct": "Millipore & Cerep (outsourced panels)", "T1 sequence (Q12809 whole entry)": "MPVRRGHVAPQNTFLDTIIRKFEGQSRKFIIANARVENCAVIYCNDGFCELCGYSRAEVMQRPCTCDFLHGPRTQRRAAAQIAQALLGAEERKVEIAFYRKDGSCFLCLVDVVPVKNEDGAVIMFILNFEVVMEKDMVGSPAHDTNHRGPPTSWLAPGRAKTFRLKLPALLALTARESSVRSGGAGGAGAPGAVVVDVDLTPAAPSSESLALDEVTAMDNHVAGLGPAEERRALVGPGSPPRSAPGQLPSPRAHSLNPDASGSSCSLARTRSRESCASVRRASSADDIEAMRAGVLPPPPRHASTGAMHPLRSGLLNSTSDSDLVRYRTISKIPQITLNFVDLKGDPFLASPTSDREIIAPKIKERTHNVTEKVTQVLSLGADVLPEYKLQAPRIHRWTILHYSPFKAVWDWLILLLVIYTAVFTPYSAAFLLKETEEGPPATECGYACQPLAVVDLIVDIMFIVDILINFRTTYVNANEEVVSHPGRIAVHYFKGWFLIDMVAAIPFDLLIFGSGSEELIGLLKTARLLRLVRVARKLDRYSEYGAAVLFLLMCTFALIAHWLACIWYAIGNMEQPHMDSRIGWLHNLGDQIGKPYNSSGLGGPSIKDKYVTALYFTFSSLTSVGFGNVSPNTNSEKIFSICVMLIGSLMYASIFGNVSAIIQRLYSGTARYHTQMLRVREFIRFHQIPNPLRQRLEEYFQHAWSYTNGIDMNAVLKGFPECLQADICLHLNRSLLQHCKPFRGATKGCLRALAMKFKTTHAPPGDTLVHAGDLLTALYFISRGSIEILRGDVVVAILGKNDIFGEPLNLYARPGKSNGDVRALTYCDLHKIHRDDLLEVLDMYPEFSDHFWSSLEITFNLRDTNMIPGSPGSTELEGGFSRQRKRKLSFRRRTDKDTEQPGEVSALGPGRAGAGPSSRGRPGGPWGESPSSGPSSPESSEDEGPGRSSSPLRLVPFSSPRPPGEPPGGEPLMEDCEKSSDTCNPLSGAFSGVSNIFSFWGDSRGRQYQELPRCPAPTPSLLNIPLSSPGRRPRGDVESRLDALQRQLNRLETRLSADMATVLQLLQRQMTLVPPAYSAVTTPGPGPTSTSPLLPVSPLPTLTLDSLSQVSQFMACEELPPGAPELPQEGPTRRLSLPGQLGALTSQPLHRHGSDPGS", "assay": "Secondary pharmacology binding panel (Millipore & Cerep)", "conditions": "at 10 µM", "description": "As pharmacological properties regarding selectivity are crucial for the development of ENaC inhibitors, we first assessed the properties of AZD5634 through a standard battery of assessments."}, "[2]": {"system": "healthy sheep", "assay": "Mucociliary clearance (99mTc-sulfur colloid) in healthy sheep after nebulized drug", "type": "in vivo", "description": "Twenty-one adult female Florida native sheep (37–54 kg, Fair Meadow Sheep) were used in the present study, once or twice with a washout of at least 1 wk between experiments. Animals were restrained in an upright position in a specialized body harness in modified carts. The head of the animal was immobilized, and after local anesthesia of the nasal passage was induced with 2% lidocaine, the animals were nasally intubated with a standard endotracheal tube (7.5 mm diameter, Mallinckrodt, St. Louis, MO). A flexible bronchoscope was used to guide the tube and verify its position in the trachea. After intubation, the animals were allowed to rest for ∼20 min before administration of any agent.\nNebulized drug or placebo was given as an aerosol where 3 mL volume (compound in 10% EtOH:90% saline) was delivered at a tidal volume of 300 mL. To maximize central deposition in the airways, a dosimeter was used to deliver the compound. The nebulizer was connected to the dosimeter system consisting of a solenoid valve and a source of compressed air (20 psi). The output of the nebulizer was connected to a T-piece, with one end attached to a respirator (Harvard Apparatus Inc., Holliston, MA). The system was activated for 1 s at the onset of the inspiratory cycle of the respirator, which was set at an inspiratory/expiratory ratio of 1:1 and a rate of 20 breaths/min. To evaluate the effect of repeated dosing, AZD5634 was given twice daily for 4 days and MCC was measured 8 h after the 7th dose.\nMCC rate was measured by means of aerosolized technetium-labeled sulfur colloid (^99mTC-SC) and nebulized via the same dosimeter system as for the drug administration. […] Aerosol ^99mTC-SC was generated using an Air Life nebulizer (CareFusion, Yorba Linda, CA). Approximately 20 mCi of ^99mTC-SC in a total of 2 mL of sterile saline was placed in the nebulizer. A tidal volume of 500 mL was used to deliver the ^99mTC-SC over 3 min.\nBlood was kept on ice until centrifuged (4,000 g, 5 min, 4°C) and plasma (approximately 2 mL) was transferred to two Eppendorf tubes per sample and frozen at −20°C until analyzed. Sodium and potassium concentrations were analyzed at Mount Sinai Medical Center immediately after sampling and before centrifugation (IRMA TruPoint Analysis System). The plasma samples for analysis of drug concentration were shipped on dry ice to AstraZeneca R&D, Mölndal, Gothenburg and analyzed by means of LC-MSMS (001–04 Method for Blood Plasma Analysis).\nRat electrolyte data were analyzed by means of repeated-measures ANCOVA (SAS v.9)."}}}
{"substance": "AZD5634", "values": [{"measurement": "hERG inhibition", "setting": "[1]", "value": 13, "unit": "%"}, {"measurement": "MCC effect after repeated administration", "setting": "[2]; 3 μg/kg bid for 4 days (7 doses), MCC 8 h after 7th dose", "value": "effect magnitude was maintained compared with single-dose studies"}, {"measurement": "duration of MCC effect", "setting": "[2]; 12 μg/kg given 0, 4, 8, 12, 24 h before 99mTc", "value": "retained for 8 h, with approximately half left at 12 h and another half of the remaining effect gone by 24 h"}, {"measurement": "dose giving max effect on MCC", "setting": "[2]; dose-response 1–330 µg/kg, healthy sheep", "value": 0.12, "unit": "mg/kg"}, {"measurement": "dose giving max efficacy on MCC", "setting": "[2]; dose-response, healthy sheep", "value": 0.12, "unit": "mg/kg"}, {"measurement": "effect on MCC", "setting": "[2]; nebulized 1–330 µg/kg, given just before 99mTc", "value": "dose-dependent effect on MCC"}, {"measurement": "peak effect on mucus clearance (augmentation)", "setting": "[2]; normal sheep in vivo", "value": 30, "unit": "%"}]}
